Reference: PMC4783402 (Frontiers in Microbiology, 2016)

Experiments:
[1] = in vitro; settings: human
[2] = tested on: L. pneumophila biofilm; format: cell-based, Legionella pneumophila 155; settings: 0.1 mM polyamino-phenolic ligand, 3-day-old biofilm treated 3 days, tap water, 37°C
[3] = tested on: L. pneumophila/E. coli biofilm; format: cell-based, Legionella pneumophila 155 / Escherichia coli; settings: 0.1 mM polyamino-phenolic ligand, 3-day-old biofilm treated 3 days
[4] = tested on: L. pneumophila biofilm; format: cell-based, Legionella pneumophila 155; settings: 0.1 mM polyamino-phenolic ligand added at inoculum, 3-day contact time
[5] = tested on: L. pneumophila/A. hydrophila biofilm; format: cell-based, Legionella pneumophila 155 / Aeromonas hydrophila; settings: 0.1 mM polyamino-phenolic ligand added at inoculum, 3-day contact time
[6] = tested on: L. pneumophila/E. coli biofilm; format: cell-based, Legionella pneumophila 155 / Escherichia coli; settings: 0.1 mM polyamino-phenolic ligand added at inoculum, 3-day contact time
[7] = tested on: planktonic A. hydrophila; format: cell-based, Aeromonas hydrophila
[8] = tested on: planktonic E. coli; format: cell-based, Escherichia coli
[9] = tested on: planktonic L. pneumophila; format: cell-based, Legionella pneumophila; settings: 0.1 mM polyamino-phenolic ligand, 24 h, PBS, 37°C
[10] = tested on: planktonic P. aeruginosa; format: cell-based, Pseudomonas aeruginosa
[11] = tested on: planktonic K. pneumoniae; format: cell-based, Klebsiella pneumoniae
[12] = tested on: L. pneumophila/A. hydrophila biofilm; format: cell-based, Legionella pneumophila 155 / Aeromonas hydrophila; settings: 0.1 mM polyamino-phenolic ligand, 3-day-old biofilm treated 3 days
[13] = tested on: L. pneumophila/K. pneumonia biofilm; format: cell-based, Legionella pneumophila 155 / Klebsiella pneumoniae; settings: 0.1 mM polyamino-phenolic ligand, 3-day-old biofilm treated 3 days
[14] = tested on: L. pneumophila/P. aeruginosa biofilm; format: cell-based, Legionella pneumophila 155 / Pseudomonas aeruginosa; settings: 0.1 mM polyamino-phenolic ligand added at inoculum, 3-day contact time
[15] = tested on: L. pneumophila/K. pneumoniae biofilm; format: cell-based, Legionella pneumophila 155 / Klebsiella pneumoniae; settings: 0.1 mM polyamino-phenolic ligand added at inoculum, 3-day contact time
[16] = tested on: five-species biofilm (L. pneumophila/P. aeruginosa/A. hydrophila/E. coli/K. pneumoniae); format: cell-based; settings: 0.1 mM polyamino-phenolic ligand added at inoculum, 3-day contact time

Row | SMILES | viability [1] [%] | biofilm reduction (degradation) [2] [%] | effect on number of viable planktonic cells [7] | effect on number of viable planktonic cells [8] | effect on number of viable planktonic cells [9] | effect on number of viable planktonic cells [10] | effect on number of viable planktonic cells [11] | further results
1 | NCCNCCNCc1cc(-c2ccc(O)c(CNCCNCCN)c2)ccc1O [Bisom, 3,3′-bis(N-(N-(2-aminoethyl)-2-aminoethyl)aminomethyl)-4,4′-dihydroxybiphenyl] | 72 |  |  |  |  |  |  | 
2 | NCCN(CCN)Cc1cc(-c2ccc(O)c(CN(CCN)CCN)c2)ccc1O [Dimo, 3,3′-bis(N,N-bis(2-aminoethyl)aminomethyl)-4,4′-dihydroxybiphenyl] | 58 | 27 |  |  |  |  |  | 
3 | Oc1c2cccc1CNCCN(CCNCCCNCCNCCCNCCN1CCNCc3cccc(c3O)CNCC1)CCNC2 [Double Macrophen, 1,16-bis(3,6,9-triaza-15-hydroxybicyclo(9.3.1)pentadeca-11,13,1^15-trien-6-yl)-3,7,10,14-tetraazahexadecane] | 95 | 32 | did not reduce the number of viable cells | did not reduce the number of viable cells | did not reduce the number of viable cells | did not reduce the number of viable cells | did not reduce the number of viable cells | biofilm reduction (degradation) [3]: 39%; biofilm formation inhibition [4]: 48%; biofilm formation inhibition [5]: 34%; biofilm formation inhibition [6]: 42%
4 | NCCN1CCNCc2cccc(c2O)CNCC1 [Macrophen, 2-(3,6,9-triaza-15-hydroxybicyclo(9.3.1)pentadeca-11,13,1^15-trien-6-yl)ethylamine] |  | 27 | did not reduce the number of viable cells | did not reduce the number of viable cells | did not reduce the number of viable cells | did not reduce the number of viable cells | did not reduce the number of viable cells | biofilm reduction (degradation) [12]: 33%; biofilm reduction (degradation) [13]: 33%; biofilm formation inhibition [14]: 26%; biofilm formation inhibition [15]: 24%; biofilm formation inhibition [16]: 27%
5 | NCCN(CCN)Cc1cccc(-c2cccc(CN(CCN)CCN)c2O)c1O [Bfden, 3,3′-bis(N,N-bis(2-aminoethyl)aminomethyl)-2,2′-dihydroxybiphenyl] | 97 |  |  |  |  |  |  | 
